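Protocol summary: plate cells (96-well), add compound at 5 concentrations, incubate 48 h, interpolate endpoints linearly. GI50 is the concentration that inhibits growth by half. TGI marks complete inhibition of growth.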
Tests used:
Experiment in all cases: NCI tumour cell line growth inhibition, 48 h
ACHN renal = system: ACHN renal
SK-MEL-5 melanoma = system: SK-MEL-5 melanoma
HCC-2998 colon = system: HCC-2998 colon
HOP-92 NSCLC = system: HOP-92 NSCLC
HCT-116 colon = system: HCT-116 colon
HS 578T breast = system: HS 578T breast
LOX IMVI melanoma = system: LOX IMVI melanoma
NCI-H23 lung = system: NCI-H23 lung
EKVX NSCLC = system: EKVX NSCLC
OVCAR-3 ovarian = system: OVCAR-3 ovarian

| SMILES | GI50 (ACHN renal) [nM] | TGI (ACHN renal) [nM] | GI50 (SK-MEL-5 melanoma) [nM] | TGI (SK-MEL-5 melanoma) [nM] | GI50 (HCC-2998 colon) [nM] | TGI (HCC-2998 colon) [nM] | GI50 (HOP-92 NSCLC) [nM] | TGI (HOP-92 NSCLC) [µM] | GI50 (HCT-116 colon) [nM] | TGI (HCT-116 colon) [µM] | GI50 (HS 578T breast) [nM] | TGI (HS 578T breast) [µM] | GI50 (LOX IMVI melanoma) [nM] | TGI (LOX IMVI melanoma) [nM] | GI50 (NCI-H23 lung) [nM] | TGI (NCI-H23 lung) [µM] | GI50 (EKVX NSCLC) [nM] | TGI (EKVX NSCLC) [µM] | GI50 (OVCAR-3 ovarian) [nM] | TGI (OVCAR-3 ovarian) [nM] |
| --- | --- | --- | --- | --- | --- | --- | --- | --- | --- | --- | --- | --- | --- | --- | --- | --- | --- | --- | --- | --- |
| CNCCOc1nc2c3cnccc3cc(-c3cc(OC)c(OC)c(OC)c3)c2c2ccncc12 | 15 | 59.8 | 28.8 | 144 | 45.4 | 213 | 16.8 | 0.1 | < 14.7 | 0.175 | 139 | 0.747 | 13.1 | 94.4 | 27.8 | 0.161 | 78.2 | 0.432 | 90.6 | 464 |
| CC[C@H](C)[C@H](NC(=O)C12CC(NC(C)=O)(C1)C2)C(=O)N(C)[C@H](C[C@@H](OC(C)=O)c1nc(C(=O)N[C@@H](Cc2ccccc2)C[C@H](C)C(=O)OC)cs1)C(C)C | 1130 | > 16700 | 80.7 | 2760 | 210 | > 16700 | > 11800 | > 16.7 | 101 | > 16.7 | 505 | > 9.51 | 229 | > 16700 | 650 | > 16.7 | 1090 | > 16.7 | 49.4 | 569 |
| OC(c1ccccc1)c1c(-c2ccccc2)oc(-c2ccccc2)c1C(O)c1ccccc1 (stereo not given) |  | 19100 |  | 23600 |  | 33000 |  | 26.5 |  | 18.3 |  | 52.7 |  | 25200 |  | 23.3 |  | 19.6 |  | 18700 |
| CN1CCN(c2ccc3nc4c(nc3c2C(F)(F)F)C(=O)c2ncccc2C4=O)CC1 |  |  | 1430 | 2760 | 1210 | 2630 | 2490 | 5.65 | 1470 | 4.51 | 1910 | 5.38 | 1040 | 2660 | 365 | 1.91 | 1790 | 3.87 | 379 | 1410 |
| Cc1cc2c(C(C)C)c(O)c(O)c(C=O)c2c(O)c1-c1c(C)cc2c(C(C)C)c(O)c(O)c(C=O)c2c1O (tested in a mixture with another compound) | 545 | 2210 | 1540 | 2950 | 484 | 1760 | 223 | 0.909 | 455 | 1.61 | 543 | 4.33 | 1160 | 2540 | 464 | 2.03 | 473 | 3.18 | 1030 | 2690 |
| CN(C)CCOc1nc2ccccc2c2c1-c1ccc(Cl)cc1C2=O | 419 | 1720 | 1360 | 2670 | 970 | 2490 | 748 | 12.3 | 422 | 1.52 | 728 | 3.59 | 416 | 1780 | 1140 | 4.04 | 2060 | 6.85 | 622 | 1850 |
| CN(NC(=O)CC(=O)NN(C)C(=S)c1ccc(Cl)cc1)C(=S)c1ccc(Cl)cc1 | 18100 | 85800 | 15400 | 46000 |  |  |  | 9.05 | 10700 | > 100 | 17700 | 48.7 | 20200 | > 100000 | 12100 | 46.2 | 18800 | > 100 | 13000 | 46400 |

Reference: PubChem BioAssay (NCI)
